Assays:
[1] = Inhibition of HIV1 protease using fluorogenic substrate by continuous fluorometric assay; design: species or system Human immunodeficiency virus 1
[2] = system: Human immunodeficiency virus 1; assay: Antiviral activity against HIV1 LAI infected in human MT2 cells assessed as reduction in p24 Gag protein production incubated for 6 days by automated chemiluminescent enzyme immunoassay; type: functional, cell-based; details: Human immunodeficiency virus 1, LAI, MT2, 144 h

SMILES	Ki [1] [nM]	IC50 [2] [nM]
Cc1csc([C@H]2CCCN2C(=O)c2cccc(C(=O)N[C@@H](Cc3ccccc3)[C@H](O)CN(CC(C)C)S(=O)(=O)c3ccc(N)cc3)c2)n1	1.61	189
COc1ccc(S(=O)(=O)N(CC(C)C)C[C@@H](O)[C@H](Cc2ccccc2)NC(=O)c2cc(O)cc(C(=O)N(C)Cc3nc(C)oc3C)c2)cc1	0.51	290
COc1ccc(S(=O)(=O)N(CC(C)C)C[C@@H](O)[C@H](Cc2ccccc2)NC(=O)c2cccc(C(=O)N3CC[C@H](c4nc(C)cs4)C3)c2)cc1	0.4	109
COc1ccc(S(=O)(=O)N(CC(C)C)C[C@@H](O)[C@H](Cc2ccccc2)NC(=O)c2cccc(C(=O)N(C)Cc3nc(C)oc3C)c2)cc1	0.21	31
COc1ccc(S(=O)(=O)N(CC(C)C)C[C@@H](O)[C@H](Cc2ccccc2)NC(=O)c2ccccc2C(=O)N(C)Cc2nc(C)oc2C)cc1	629	> 1000
COCc1coc([C@H]2CCCN2C(=O)c2cccc(C(=O)N[C@@H](Cc3ccccc3)[C@H](O)CN(CC(C)C)S(=O)(=O)c3ccc(OC)cc3)c2)n1	0.8	327
Cc1csc([C@H]2CCCN2C(=O)c2cccc(C(=O)N[C@@H](Cc3ccccc3)[C@H](O)CN(CC(C)C)S(=O)(=O)c3ccc(CO)cc3)c2)n1	0.79	164
COc1ccc(S(=O)(=O)N(CC(C)C)C[C@@H](O)[C@H](Cc2ccccc2)NC(=O)c2cccc(CN3CCC[C@@H]3c3nc(C)cs3)c2)cc1	23.6	
CNc1cc(C(=O)N[C@@H](Cc2ccccc2)[C@H](O)CN(CC(C)C)S(=O)(=O)c2ccc(OC)cc2)cc(C(=O)N(C)Cc2nc(C)oc2C)c1	5.08	600
COc1ccc(S(=O)(=O)N(CC(C)C)C[C@@H](O)[C@H](Cc2ccccc2)NC(=O)c2cccc(C(=O)N3CCC[C@@H]3c3nc(C)co3)c2)cc1	0.41	33
COc1ccc(S(=O)(=O)N(CC(C)C)C[C@@H](O)[C@H](Cc2ccccc2)NC(=O)c2cccc(C(=O)N3CCCC[C@@H]3c3nc(C)cs3)c2)cc1	0.53	221
COc1ccc(S(=O)(=O)N(CC(C)C)C[C@@H](O)[C@H](Cc2ccccc2)NC(=O)c2cccc(C(=O)N3CCC[C@H]3c3nc(C)cs3)c2)cc1	30.8	> 1000
COc1ccc(S(=O)(=O)N(CC(C)C)C[C@@H](O)[C@H](Cc2ccccc2)NC(=O)c2cccc(C(=O)N3CCC[C@@H]3c3nc(C)cs3)c2)cc1	0.025	69
COc1ccc(S(=O)(=O)N(CC(C)C)C[C@@H](O)[C@H](Cc2ccccc2)NC(=O)c2cccc(C(=O)N(C)Cc3nc(C)co3)c2)cc1	0.63	581
COc1ccc(S(=O)(=O)N(CC(C)C)C[C@@H](O)[C@H](Cc2ccccc2)NC(=O)c2cccc(C(=O)N3CC[C@@H](c4nc(C)cs4)C3)c2)cc1	0.49	280
COc1ccc(S(=O)(=O)N(CC(C)C)C[C@@H](O)[C@H](Cc2ccccc2)NC(=O)c2cccc(C(=O)N3CSC[C@@H]3c3nc(C)cs3)c2)cc1	0.76	32
COc1ccc(S(=O)(=O)N(CC(C)C)C[C@@H](O)[C@H](Cc2ccccc2)NC(=O)c2cccc(C(=O)N(C)Cc3csc(C)n3)c2)cc1	0.107	32
COc1ccc(S(=O)(=O)N(CC(C)C)C[C@@H](O)[C@H](Cc2ccccc2)NC(=O)c2ccc(C(=O)N(C)Cc3nc(C)oc3C)cc2)cc1	70	> 1000
COc1ccc(S(=O)(=O)N(CC(C)C)C[C@@H](O)[C@H](Cc2ccccc2)NC(=O)c2cncc(C(=O)N3CCC[C@@H]3c3nc(C)cs3)c2)cc1	2.5	
COc1ccc(S(=O)(=O)N(CC(C)C)C[C@@H](O)[C@H](Cc2ccccc2)NC(=O)c2cccc(C(=O)N(C)Cc3coc(C)n3)c2)cc1	0.64	23

Reference: ChEMBL document CHEMBL4043088, “Design of novel HIV-1 protease inhibitors incorporating isophthalamide-derived P2-P3 ligands: Synthesis, biological evaluation and X-ray structural studies of inhibitor-HIV-1 protease complex” (Bioorg Med Chem, 2017)
